Test system: Crotalus atrox venom-enhanced tissue-type plasminogen activator initiated fibrinolysis
Assay: Thrombelastography of human plasma pretreated with iron and/or CO before venom exposure in the presence of tPA (Example II)
Type: biochemical
Settings: 100 IU/ml tPA, vs matched samples without or with venom exposure (0.5 μg/ml)
Experimental: Two hundred mg of lyophilized, pooled venom was obtained from four western diamondback rattlesnakes (Crotalus atrox) for experimentation. Venom was reconstituted in calcium-free phosphate buffered saline (PBS, Sigma-Aldrich, Saint Louis, Mo., USA) at a concentration of 20 mg/ml, aliquoted, and then stored at −80° C. until experimentation at the University of Arizona.
Pooled normal plasma (George King Bio-Medical, Overland Park, Kans., USA) anticoagulated with sodium citrate was rapidly thawed at 37° C. and used for experimentation. To assess the effects of pretreatment of antifibrinolytic plasma proteins with iron, CO, or both, 1% additions of PBS, ferric chloride (FeCl3, 99.9% pure, Sigma-Aldrich, Saint Louis, Mo., USA) in PBS, or CORM-2 (tricarbonyldichlororuthenium (II) dimer, a CO releasing molecule, Sigma-Aldrich, Saint Louis, Mo., USA) dissolved in dimethyl sulfoxide (DMSO, Sigma-Aldrich, Saint Louis, Mo., USA) were used. […] Plasma was exposed to these various agents for at least 5 min prior to incubations with venom.
The final volume for all subsequently described plasma sample mixtures was 359.4 μl. Sample composition consisted of […] of plasma; 10 μl of tissue factor reagent (0.1% final concentration in distilled water; Diagnostica Stago S.A.S., Asnieres sur Seine, France), 10 μl of tissue type plasminogen activator (tPA, 580 IU/μg, Genentech, Inc., San Francisco, Calif., USA; 100 IU/ml final concentration) and 3.4 μl of PBS or venom (final concentration 0.5-2.0 μg/ml). […] The aforementioned plasma and venom mixtures were placed in a disposable cup in a computer-controlled Thrombelastograph® hemostasis system (Model 5000, Haemoscope Corp., Niles, Ill., USA) and incubated for 5 min at 37° C., with addition of 20 μl of 200 mM CaCl2) as the last step to initiate clotting. Data were collected at 37° C. until clot lysis time (CLT) was observed. The following elastic modulus-based parameters previously described (see, Nielsen V G, Pretorius E. Blood Coagul Fibrinolysis 2014; 25:695-702) were determined: time to maximum rate of thrombus generation (TMRTG): this is the time interval (min) observed prior to maximum speed of clot growth; maximum rate of thrombus generation (MRTG): this is the maximum velocity of clot growth observed (dynes/cm^2/sec); total thrombus generation (TTG, dynes/cm^2), the final viscoelastic resistance observed after clot formation; time to maximum rate of lysis (TMRL, min), maximum rate of lysis (MRL, dynes/cm^2/sec) and CLT (min). Lastly, to assess if venom had thrombolytic properties that were tPA independent, n=4 replicates were performed wherein no tPA was added and data were collected for 3 h.
Data are presented as mean±SD. All conditions unless otherwise indicated were represented by n=8 replicates. This number of replicates reliably provides a statistical power>0.8 for P<0.05 (see, Nielsen V G, Pretorius E. Blood Coagul Fibrinolysis 2014; 25:695-702). A commercially available statistical program was used for two-way analysis of variance (ANOVA) to assess interactions of venom and tPA on coagulation kinetics and interactions of iron and CO on venom-enhanced fibrinolysis (SigmaStat 3.1, Systat Software, Inc., San Jose, Calif., USA). Additional one-way ANOVA followed by Holm-Sidak post hoc analyses were performed to assess differences between the conditions. Graphics depicting viscoelastic data were generated with a commercially available program (OrigenPro 7.5, OrigenLab Corporation, Northampton, Mass., USA).

[1] = 10 μM ferric chloride or 100 μM CORM-2

## [Cl][Fe]([Cl])[Cl] [iron, ferric chloride]
[1]
  clot lysis time (CLT): significantly greater
  maximum rate of thrombus generation (MRTG): greater
  time to maximum rate of lysis (TMRL): significantly greater
  total thrombus generation (TTG): greater
10 μM ferric chloride
  maximum rate of lysis (MRL): significantly greater
  time to maximum rate of thrombus generation (TMRTG): significantly lesser
